PMC11056381, “Characterization and evaluation of cytotoxic and antimicrobial activities of cyclotides from Viola japonica” (Scientific Reports, 2024)
Residues, ends and D or L forms follow the SMILES beside them.

What was measured:
Assay type in all cases: cell-based
[1] = system: Salmonella paratyphi (CMCC(B)50094-2-9); experiment: MIC, broth dilution in 96-well plate; settings: 10^6 CFU/ml, overnight 37 °C, visual clarity, performed at least three times
Excerpt: (§1) Cycloviolacin O2, known for its antimicrobial, hemolytic, and insecticidal activities, has been more extensively investigated[4],[20],[36]–[38]. Viba 11, originally discovered in Viola baoshanensis[39] and found in other plants such as Viola tricolor[40], Viola betonicifolia, and Viola philippica, lacks biological activity studies. These two cyclotides and vija 10 are high in content and easy to purify, and cycloviolacin O2 can also be used as a positive control to conduct activity study. In addition, few vija12 and 31 were extracted for antibacterial experiments. All purified cyclotides underwent antibacterial testing against Gram-positive bacterium Staphylococcus aureus (CMCC(B)26003-2-10) and Bacillus subtilis (CMCC(B)63501), Gram-negative bacteria, including Acinetobacter baumannii (ATCC19606), Escherichia coli (CMCC(B)44102-2-6), and Salmonella paratyphi (CMCC(B)50094-2-9). […] In addition, the MICs of viba 11, cycloviolacin O2 and vija 10 against B. subtilis were respectively 5.4 μM, 2.1 μM and 14.3 μM (Table 1). […] Therefore, it is hypothesized that the lower antimicrobial activity of vija 10 may be attributed to the presence of only one Lys residue in loop 5.
(§2) Bacterial fluids are cultured overnight at 37 °C. The next day, the bacterial liquids are diluted to a concentration of 10^6 CFU/ml. Prepare different concentrations of cyclotide drugs and kanamycin sulfate in advance, and sequentially add the drugs and bacterial liquid to the 96-well plate. Negative controls consisted of sterile water and bacterial liquid. The plate is cultured overnight at 37 °C and observe whether the solution remains clear to see the growth of the bacterial suspension. Each test was performed three times at least.

[2] = system: Staphylococcus aureus (CMCC(B)26003-2-10); experiment: MIC, broth dilution in 96-well plate; settings: 10^6 CFU/ml, overnight 37 °C, visual clarity, performed at least three times
Excerpt: as §1, §2

[3] = system: 4T1 (mouse breast cancer cells); experiment: MTT cytotoxicity assay; settings: 4T1 cells, 48 h incubation, mean ± SD of at least three repeats
Procedure: (§3) Five types of cells, namely A549 (human non-small cell lung cancer cells), T24 (human bladder cancer cells), 4T1 (mouse breast cancer cells), 7402 (human hepatocellular carcinoma cells), and THLE-3 (human hepatocytes cells), are selected for evaluating the cytotoxicity of viba 11, cycloviolacin O2, and vija 10 using the MTT (3-(4,5-dimethylthiazol-2-yl)-2,5-diphenyltetrazolium bromide) reagent.
(§4) To determine cell toxicity using MTT assay, cells are seeded in a 96-well plate and cultured for 24 h. After that, different concentrations of cyclotides are added to the cells and incubated for 48 h. MTT is then added to react with the cells, and after 4 h, the reaction is terminated by discarding the supernatant and adding dimethyl sulfoxide for resuspension. The absorbance at 570 nm is measured after 10 min of shaking at room temperature. Each test was performed three times at least. The data were analyzed using GraphPad Prism 8. During this process, the drug concentrations were transformed into logarithmic form with a base of 10 and plotted on the x-axis. Cell viability (%) = [A (cyclotides) − A (blank)]/[A (control) − A (blank)] × 100, which was represented on the y-axis. Using this method, we determined the IC50 value for each experiment, with each experiment repeated at least three times and the mean value calculated. The error was represented by the standard deviation of the IC50 obtained from three repetitions.

[4] = system: T24 (human bladder cancer cells); experiment: MTT cytotoxicity assay; settings: 48 h incubation, mean ± SD of at least three repeats
Procedure: as §3, §4

[5] = system: THLE-3 (human hepatocytes cells); experiment: MTT cytotoxicity assay; settings: THLE-3 cells, 48 h incubation, mean ± SD of at least three repeats
Procedure: as §3, §4

[6] = system: 7402 (human hepatocellular carcinoma cells); experiment: MTT cytotoxicity assay; settings: 7402 cells, 48 h incubation, mean ± SD of at least three repeats
Procedure: as §3, §4

[7] = system: A549 (human non-small cell lung cancer cells); experiment: MTT cytotoxicity assay; settings: 48 h incubation, mean ± SD of at least three repeats
Procedure: as §3, §4

[8] = system: Bacillus subtilis; experiment: DAPI/PI staining, laser scanning confocal microscopy (membrane integrity); settings: B. subtilis 10^8 CFU/mL, 37 °C, 1-2 h, DAPI and PI staining
Excerpt: Many naturally occurring antimicrobial peptides (AMPs) are cationic. Cationic AMPs (CAMPs) exert bactericidal activity by mechanisms featuring cell membrane disruption. Cyclotides are likely to kill germ by disrupting their membranes. Laser scanning confocal microscopy can be used to study the ability of cyclotides to destroy bacterial membrane. 4′, 6-diaminyl-2-phenylindole (DAPI) is a blue fluorescent dye that can penetrate membranes and stain both living and dead strains, while propyl iodide (PI) stains only strains with damaged membranes, glowing red[46],[47]. In this study, the bracelet cyclotide family members viba 11 and vija 10 interacted with A. baumannii and B. subtilis in their logarithmic phase at 37 °C for 1–2 h. After the addition of DAPI and PI fluorescent dyes, the samples were incubated in a dark room at room temperature for 15 min for staining. The stained samples were then centrifuged to concentrate, resuspended, and applied to a slide for observation using a confocal laser scanning microscope (FLUOVIEW FV3000, Olympus). […] With increasing concentration, the blue and red fluorescence gradually overlapped. […] However, the magnification is not sufficient to detect further details of membrane disruption. Therefore, further exploration can be conducted using methods such as scanning electron microscopy (SEM) to study the antibacterial mechanism in depth.
Figure 5 Study on the antimicrobial mechanism of cyclotides. (A) Incubation of Acinetobacter baumannii with sterile water, 1 MIC and 4 MIC of viba 11. (B) Incubation of Bacillus subtilis with sterile water, 1 MIC and 4 MIC of vija 10. All samples were stained with DAPI and PI. The negative control group PI is not stained and the membrane is intact, while the membrane treated with cyclotides was stained and the membrane are destroyed. Scale bar: 20 μm. Magnification: 600×.
Take 50 μL of A. baumannii and B. subtilis (10^8 CFU/mL), and add 50 μL of sterile water, different concentrations of cyclotides viba 11 and vija 10 to achieve final concentrations of 1 MIC and 4 MIC respectively. Incubate at 37 °C for 1–2 h. Subsequently, add 4,6-diamino-2-phenylindole (DAPI) and propidium iodide (PI) dyes at 20 μg/mL each, and incubate in the dark for 15 min. Centrifuge at 5000 rpm for 3 min to concentrate, discard the majority of the supernatant, and resuspend the bacteria in the remaining small volume of liquid. Mix well and take 10 μL of the stained sample onto a glass slide, gently place a cover slip on top with forceps, avoiding the formation of bubbles during the pressing process. After sealing the cover slip, check with a laser confocal microscope, and the observation was conducted using an objective lens with the maximum magnification of 60 × . […]

SMILES: CC[C@H](C)[C@@H]1NC(=O)[C@@H]2CSSC[C@@H]3NC(=O)[C@H](C(C)C)NC(=O)[C@H](CCCCN)NC(=O)[C@H](CO)NC(=O)[C@H](CO)NC(=O)[C@@H]4CSSC[C@H](NC(=O)[C@H](CO)NC(=O)[C@H](CCC(=O)O)NC(=O)CNC(=O)[C@H](CSSC[C@H](NC(=O)CNC(=O)[C@H](CC(C)C)NC(=O)[C@H](CC(C)C)NC(=O)[C@H](C)NC(=O)[C@H](CO)NC1=O)C(=O)N[C@@H](CO)C(=O)N4)NC(=O)[C@@H]1CCCN1C(=O)[C@H]([C@@H](C)CC)NC(=O)[C@H](CO)NC(=O)CNC(=O)[C@H](CC(N)=O)NC(=O)[C@H](CCCCN)NC(=O)[C@H](Cc1ccc(O)cc1)NC3=O)C(=O)N[C@@H](C(C)C)C(=O)N[C@@H](Cc1ccccc1)C(=O)N[C@@H]([C@@H](C)CC)C(=O)N1CCC[C@H]1C(=O)N2 [vija 10] (HELM PEPTIDE1{A.L.L.G.C.S.C.S.S.K.V.C.Y.K.N.G.S.I.P.C.G.E.S.C.V.F.I.P.C.I.S}$PEPTIDE1,PEPTIDE1,5:R3-20:R3|PEPTIDE1,PEPTIDE1,7:R3-24:R3|PEPTIDE1,PEPTIDE1,12:R3-29:R3|PEPTIDE1,PEPTIDE1,1:R1-31:R2$$$V2.0)
- MIC [1]: > 28.5 µM
- MIC [2]: > 28.5 µM
- IC50 [3]: 0.244 ± 0.02 µM
- IC50 [4]: 3.28 ± 0.15 µM
- IC50 [5]: 2.09 ± 0.06 µM
- IC50 [6]: 2.18 ± 0.06 µM
- IC50 [7]: 0.733 ± 0.2 µM
- membrane integrity (PI red fluorescence) ([8]; 1 MIC): caused damage to the membrane integrity
- membrane integrity (PI red fluorescence) ([8]; 4 MIC): majority of the cell membranes were ruptured
